# Biological target: T1, catalytic domain of human Bub1 (amino acids 704-1085) (Homo sapiens, UniProt O43683)
# T1 construct: catalytic domain of human Bub1 (amino acids 704-1085); His6 (N); made in house; host or cells: Hi5 insect cells
# Assay: Bub1 kinase assay (TR-FRET)
# Assay type: biochemical
# Details: TR-FRET; ATP 10 μM, peptide substrate 1 μM; 60 min at 22° C.; average or median if tested more than once; read-out: Inhibition of Bub1 kinase IC50
# Excerpt: Bub1-inhibitory activities of compounds described in the present invention were quantified using a time-resolved fluorescence energy transfer (TR-FRET) kinase assay which measures phosphorylation of the synthetic peptide Biotin-Ahx-VLLPKKSFAEPG (C-terminus in amide form), purchased from e.g. Biosyntan (Berlin, Germany) by the (recombinant) catalytic domain of human Bub1 (amino acids 704-1085), expressed in Hi5 insect cells with an N-terminal His6-tag and purified by affinity—(Ni-NTA) and size exclusion chromatography.
# In a typical assay 11 different concentrations of each compound (0.1 nM, 0.33 nM, 1.1 nM, 3.8 nM, 13 nM, 44 nM, 0.15 μM, 0.51 μM, 1.7 μM, 5.9 μM and 20 μM) were tested in duplicate within the same microtiter plate. To this end, 100-fold concentrated compound solutions (in DMSO) were previously prepared by serial dilution (1:3.4) of 2 mM stocks in a clear low volume 384-well source microtiter plate (Greiner Bio-One, Frickenhausen, Germany), from which 50 nl of compounds were transferred into a black low volume test microtiter plate from the same supplier. Subsequently, 2 μL of Bub1 (the final concentration of Bub1 was adjusted depending on the activity of the enzyme lot in order to be within the linear dynamic range of the assay: typically ˜200 ng/mL were used) in aqueous assay buffer [50 mM Tris/HCl pH 7.5, 10 mM magnesium chloride (MgCl2), 200 mM potassium chloride (KCl), 1.0 mM dithiothreitol (DTT), 0.1 mM sodium ortho-vanadate, 1% (v/v) glycerol, 0.01% (w/v) bovine serum albumine (BSA), 0.005% (v/v) Trition X-100 (Sigma), 1× Complete EDTA-free protease inhibitor mixture (Roche)] were added to the compounds in the test plate and the mixture was incubated for 15 min at 22° C. to allow pre-equilibration of the putative enzyme-inhibitor complexes before the start of the kinase reaction, which was initiated by the addition of 3 μL 1.67-fold concentrated solution (in assay buffer) of adenosine-tri-phosphate (ATP, 10 μM final concentration) and peptide substrate (1 μM final concentration). The resulting mixture (5 μL final volume) was incubated at 22° C. during 60 min., and the reaction was stopped by the addition of 5 μL of an aqueous EDTA-solution (50 mM EDTA, in 100 mM HEPES pH 7.5 and 0.2% (w/v) bovine serum albumin) which also contained the TR-FRET detection reagents (0.2 μM streptavidin-XL665 [Cisbio Bioassays, Codolet, France] and 1 nM anti-phospho-Serine antibody [Merck Millipore, cat. #35-002] and 0.4 nM LANCE EU-W1024 labeled anti-mouse IgG antibody [Perkin-Elmer, product no. AD0077, alternatively a Terbium-cryptate-labeled anti-mouse IgG antibody from Cisbio Bioassays can be used]). The stopped reaction mixture was further incubated 1 h at 22° C. in order to allow the formation of complexes between peptides and detection reagents. Subsequently, the amount of product was evaluated by measurement of the resonance energy transfer from the Eu-chelate-antibody complex recognizing the Phosphoserine residue to the streptavidin-XL665 bound to the biotin moiety of the peptide. To this end, the fluorescence emissions at 620 nm and 665 nm after excitation at 330-350 nm were measured in a TR-FRET plate reader, e.g. a Rubystar or Pherastar (both from BMG Labtechnologies, Offenburg, Germany) or a Viewlux (Perkin-Elmer) and the ratio of the emissions (665 nm/[…]) was taken as indicator for the amount of phosphorylated substrate. The data were normalised using two sets of control wells for high—(=enzyme reaction without inhibitor=0%=Minimum inhibition) and low—(=all assay components without enzyme=100%=Maximum inhibition) Bub1 activity. IC50 values were calculated by fitting the normalized inhibition data to a 4-parameter logistic equation (Minimum, Maximum, IC50, Hill; Y=Max+(Min−Max)/(1+(X/IC50)Hill)).
# T1 sequence (O43683 704-1085): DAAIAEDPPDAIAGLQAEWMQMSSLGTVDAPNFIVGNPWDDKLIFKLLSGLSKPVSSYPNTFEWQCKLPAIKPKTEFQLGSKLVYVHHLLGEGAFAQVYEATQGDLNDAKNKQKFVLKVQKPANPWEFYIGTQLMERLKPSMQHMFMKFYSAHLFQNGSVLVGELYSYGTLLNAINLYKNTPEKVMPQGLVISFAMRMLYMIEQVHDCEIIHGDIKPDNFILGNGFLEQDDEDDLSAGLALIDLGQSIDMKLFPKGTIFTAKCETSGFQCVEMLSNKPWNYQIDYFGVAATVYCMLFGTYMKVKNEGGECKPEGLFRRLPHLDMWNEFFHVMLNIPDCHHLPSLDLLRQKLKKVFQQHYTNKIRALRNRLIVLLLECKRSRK
row,IC50,Structure (SMILES)
1,26 nM,"O=C(Nc1cc(-c2[nH]c3c(c2Nc2ccccc2)C(=O)COC3)ccn1)c1cnco1 [Example 50, N-{4-[4-Oxo-3-(phenylamino)-1,4,5,7-tetrahydropyrano[3,4-b]pyrrol-2-yl]pyridin-2-yl}-1,3-oxazole-5-carboxamide]"
2,44 nM,"O=C(Nc1cc(-c2[nH]c3c(c2Nc2ccccc2)C(=O)COC3)ccn1)c1cncs1 [Example 51, N-{4-[4-Oxo-3-(phenylamino)-1,4,5,7-tetrahydropyrano[3,4-b]pyrrol-2-yl]pyridin-2-yl}-1,3-thiazole-5-carboxamide]"
3,10 nM,"O=C(Nc1cc(-c2[nH]c3c(c2Nc2ccccc2)C(=O)COC3)ccn1)c1ccc(F)cc1 [Example 52, 4-Fluoro-N-{4-[4-oxo-3-(phenylamino)-1,4,5,7-tetrahydropyrano[3,4-b]pyrrol-2-yl]pyridin-2-yl}benzamide]"
4,82 nM,"COC(=O)Nc1cc(-c2[nH]c3c(c2Nc2ccccc2)C(=O)COC3)ccn1 [Example 53, Methyl {4-[4-oxo-3-(phenylamino)-1,4,5,7-tetrahydropyrano[3,4-b]pyrrol-2-yl]pyridin-2-yl}carbamate]"
5,77 nM,"CCNC(=O)Nc1cc(-c2[nH]c3c(c2Nc2ccccc2)C(=O)COC3)ccn1 [Example 54, 1-Ethyl-3-{4-[4-oxo-3-(phenylamino)-1,4,5,7-tetrahydropyrano[3,4-b]pyrrol-2-yl]pyridin-2-yl}urea]"
6,98 nM,"O=C(Nc1cc(-c2[nH]c3c(c2Nc2ccccc2)C(=O)COC3)ccn1)NC1CC1 [Example 55, 1-Cyclopropyl-3-{4-[4-oxo-3-(phenylamino)-1,4,5,7-tetrahydropyrano[3,4-b]pyrrol-2-yl]pyridin-2-yl}urea]"
7,5 nM,"O=C1CN(C(=O)CCO)Cc2[nH]c(-c3ccncc3)c(Nc3ccccc3)c21 [Example 56, 6-(3-Hydroxypropanoyl)-3-(phenylamino)-2-(pyridin-4-yl)-1,5,6,7-tetrahydro-4H-pyrrolo[2,3-c]pyridin-4-one]"
8,8 nM,"CC(C)(O)CC(=O)N1CC(=O)c2c([nH]c(-c3ccncc3)c2Nc2ccccc2)C1 [Example 57, 6-(3-Hydroxy-3-methylbutanoyl)-3-(phenylamino)-2-(pyridin-4-yl)-1,5,6,7-tetrahydro-4H-pyrrolo[2,3-c]pyridin-4-one]"

# Further lines, the compound ahead of its results:
row,Structure (SMILES),IC50
1,"COC(=O)N1CC(=O)c2c([nH]c(-c3ccnc(NC(C)=O)c3)c2Nc2ccccc2)C1 [Example 31, Methyl 2-[2-(acetylamino)pyridin-4-yl]-4-oxo-3-(phenylamino)-1,4,5,7-tetrahydro-6H-pyrrolo[2,3-c]pyridine-6-carboxylate]",7 nM
2,"CC(=O)Nc1cc(-c2[nH]c3c(c2Nc2ccccc2)C(=O)CN(S(C)(=O)=O)C3)ccn1 [Example 32, N-{4-[6-(Methylsulfonyl)-4-oxo-3-(phenylamino)-4,5,6,7-tetrahydro-1H-pyrrolo[2,3-c]pyridin-2-yl]pyridin-2-yl}acetamide]",4 nM
3,"O=C1COCc2[nH]c(-c3ccncc3F)c(Nc3ccccc3)c21 [Example 33, 2-(3-Fluoropyridin-4-yl)-3-(phenylamino)-1,7-dihydropyrano[3,4-b]pyrrol-4(5H)-one]",17 nM
4,"CC(=O)Nc1cc(-c2[nH]c3c(c2Nc2ccccc2)C(=O)COC3)ccn1 [Example 34, N-{4-[4-Oxo-3-(phenylamino)-1,4,5,7-tetrahydropyrano[3,4-b]pyrrol-2-yl]pyridin-2-yl}acetamide]",60 nM
5,"O=C1COCc2[nH]c(-c3ccnc(NC(=O)C4CC4)c3)c(Nc3ccccc3)c21 [Example 35, N-{4-[4-Oxo-3-(phenylamino)-1,4,5,7-tetrahydropyrano[3,4-b]pyrrol-2-yl]pyridin-2-yl}cyclopropanecarboxamide]",55 nM
6,"O=C(CC(F)(F)F)Nc1cc(-c2[nH]c3c(c2Nc2ccccc2)C(=O)COC3)ccn1 [Example 36, 3,3,3-Trifluoro-N-{4-[4-oxo-3-(phenylamino)-1,4,5,7-tetrahydropyrano[3,4-b]pyrrol-2-yl]pyridin-2-yl}propanamide]",79 nM
7,"Cc1cnccc1-c1[nH]c2c(c1Nc1ccccc1)C(=O)CSC2 [Example 37, 2-(3-Methylpyridin-4-yl)-3-(phenylamino)-1,7-dihydrothiopyrano[3,4-b]pyrrol-4(5H)-one]",482 nM
8,"O=C1CSCc2[nH]c(-c3ccncc3Cl)c(Nc3ccccc3)c21 [Example 38, 2-(3-Chloropyridin-4-yl)-3-(phenylamino)-1,7-dihydrothiopyrano[3,4-b]pyrrol-4(5H)-one]",40 nM
9,"COc1cnccc1-c1[nH]c2c(c1Nc1ccccc1)C(=O)CSC2 [Example 39, 2-(3-Methoxypyridin-4-yl)-3-(phenylamino)-1,7-dihydrothiopyrano[3,4-b]pyrrol-4(5H)-one]",81 nM
10,"Cc1cnccc1-c1[nH]c2c(c1Nc1ccccc1)C(=O)COC2 [Example 40, 2-(3-Methylpyridin-4-yl)-3-(phenylamino)-1,7-dihydropyrano[3,4-b]pyrrol-4(5H)-one]",1470 nM
11,"O=C1COCc2[nH]c(-c3ccncc3Br)c(Nc3ccccc3)c21 [Example 41, 2-(3-Bromopyridin-4-yl)-3-(phenylamino)-1,7-dihydropyrano[3,4-b]pyrrol-4(5H)-one]",233 nM
12,"O=C1COCc2[nH]c(-c3ccncc3Cl)c(Nc3ccccc3)c21 [Example 42, 2-(3-Chloropyridin-4-yl)-3-(phenylamino)-1,7-dihydropyrano[3,4-b]pyrrol-4(5H)-one]",77 nM
13,"COc1cnccc1-c1[nH]c2c(c1Nc1ccccc1)C(=O)COC2 [Example 43, 2-(3-Methoxypyridin-4-yl)-3-(phenylamino)-1,7-dihydropyrano[3,4-b]pyrrol-4(5H)-one]",84 nM
14,"CCC(=O)Nc1cc(-c2[nH]c3c(c2Nc2ccccc2)C(=O)COC3)ccn1 [Example 44, N-{4-[4-Oxo-3-(phenylamino)-1,4,5,7-tetrahydropyrano[3,4-b]pyrrol-2-yl]pyridin-2-yl}propanamide]",50 nM
15,"COCC(=O)Nc1cc(-c2[nH]c3c(c2Nc2ccccc2)C(=O)COC3)ccn1 [Example 45, 2-Methoxy-N-{4-[4-oxo-3-(phenylamino)-1,4,5,7-tetrahydropyrano[3,4-b]pyrrol-2-yl]pyridin-2-yl}acetamide]",59 nM
16,"CSCC(=O)Nc1cc(-c2[nH]c3c(c2Nc2ccccc2)C(=O)COC3)ccn1 [Example 46, 2-(Methylsulfanyl)-N-{4-[4-oxo-3-(phenylamino)-1,4,5,7-tetrahydropyrano[3,4-b]pyrrol-2-yl]pyridin-2-yl}acetamide]",93 nM
17,"C[S+]([O-])CC(=O)Nc1cc(-c2[nH]c3c(c2Nc2ccccc2)C(=O)COC3)ccn1 (stereo not drawn) [Example 47, 2-(Methylsulfinyl)-N-{4-[4-oxo-3-(phenylamino)-1,4,5,7-tetrahydropyrano[3,4-b]pyrrol-2-yl]pyridin-2-yl}acetamide]",341 nM
18,"CS(=O)(=O)CC(=O)Nc1cc(-c2[nH]c3c(c2Nc2ccccc2)C(=O)COC3)ccn1 [Example 48, 2-(Methylsulfonyl)-N-{4-[4-oxo-3-(phenylamino)-1,4,5,7-tetrahydropyrano[3,4-b]pyrrol-2-yl]pyridin-2-yl}acetamide]",115 nM
19,"O=C(Nc1cc(-c2[nH]c3c(c2Nc2ccccc2)C(=O)COC3)ccn1)c1cscn1 [Example 49, N-{4-[4-Oxo-3-(phenylamino)-1,4,5,7-tetrahydropyrano[3,4-b]pyrrol-2-yl]pyridin-2-yl}-1,3-thiazole-4-carboxamide]",51 nM

# Source: patent US20200216439A1, “HETERO-1,5,6,7-TETRAHYDRO-4H-INDOL-4-ONES” (BAYER PHARMA AKTIENGESELLSCHAFT, priority 2015, published 2020)
